Legend:
[1] = In vivo delivery experiment of lipid nucleic acid mixture (Example 13); design: species or system C57 mice; details: oral administration, 6 hours; for delivery effect into mouse blood and tissues (heart, spleen, kidney or intestine) compared with POPC: FIG. 117a-146b, 100 μg lipid : 1 nmol sRNA
Method: 1. Experiment animals: C57 mice, male, approximately 6 weeks old, 20-24g. Mice were raised in the SPF room of the Animal Center of the Institute of Basic Medical Sciences of Chinese Academy of Medical Sciences. The mice were fasted for 12 hours before intragastric administration.
2. Preparation of the mixture of lipid and small RNA: the prepration was conducted on the basis of a dose of 100 μg lipid: lnmol single stranded small RNA PGY-sRNA-26 per mouse as follows: lnmol of each sRNA was dissolved with 500 μl DEPC water in a glass tube, 100 μg corresponding lipid solution No.33, No.35,No.37, No.42, No.43, No.44, No.45, No.46, No.47, No.48, No.49, No.50, No.51, No.52, No.53, No.54, No.55, No.56, No.57, No.58, No.59, No.60, No.61, No.62, No.65, No.66, No.67, No.68, No.69 or No.70 (lipid chloroform solution with a concentration as shown in Table 1-1) was added, pipetted to mix thoroughly. The solution was heated in water bath at 90° C. for 15 min, naturally cooled down, and was administered via gavage.
1) Tissue sampling and extraction of RNA: 6 hours after gavage in mice, 500 μl of blood was taken from the eyeball, and was added 1.5 ml Trizol Reagent LS to thoroughly mix and lyse. Tissue sampling: the mouse was sarcrified by breaking its neck, and the thoracic and abdominal cavities of the mouse was exposed to remove the heart/whole spleen/two kidneys/intestine (5 cm of upper end), which was immediately added 2 ml Trizol Reagent (purchased from Invitrogen) and homogenized until complete lysis with a tissue homogenizer.
2) Reverse transcription of sRNA to cDNA: Reverse Transcription Kit (High-Capacity cDNA Reverse Transcription Kits, Applied Biosystems, cat. no. 4368813), was used to reverse transcribe the total RNA to cDNA, and the reverse system was as follows: template RNA (150 ng/μL) 10 μL, 10× RT buffer, 2.0 μL, 25× dNTP Mix (100 mM) 0.8 μL, random primers 2.0 μL, the Multi Scribe™ reverse Transcriptase 1.0 RNase inhibitor 1.0 μL, nuclease-free H2O 3.2 μL. After a brief centrifugation, the reaction was loaded in a PCR reactor. The reaction conditions were as follows: (1) 25° C., 10 min; (2) 37° C., 120 min; (3) 85° C., 5 min; (4) 4° C., termination of the reaction. After the reaction, 20 μL RNase-free ddH2O was added to make up the final volume to 40 μL.
LightCycler 480 fluorescence quantitative PCR instrument was used, and the PCR reaction conditions were: 95° C. , 5 min for pre-denaturation, followed by the PCR amplification cycle: (1) 95° C., 10 s; (2) 55° C., 10 s; (3) 72° C., 20 s; a total of 40 cycles; 40° C. for 10 s in the end to cool down. The forward primer and reverse primer of the amplification reaction were designed and synthesized by Beijing Qing Ke New Industrial Biotechnology Co., Ltd. (U6 F primer: GTGCAGGGTCCGAGGT (SEQ ID NO: 24), PGY-sRNA-26F primer: […] (SEQ ID NO: 34), reverse primer miR all rev: GTGCACGCTCCGAGGT (SEQ ID NO: 26)).
3) The relative expression amount was calculated by the 2-ΔCt method.
The data were represented in the form of mean±SEM. The parameter difference between the experimental group and the control group was evaluated by unpaired t test. The data were statistically analyzed by GraphPad Prism software, and P<0.05 was considered statistically significant.

[2] = system: A549 cell (human lung adenocarcinoma cell); experiment: In vitro delivery of lipid nucleic acid mixture, RT-qPCR of intracellular small RNA; type: cell-based; details: for delivery of HJT-sRNA-m7 double-stranded RNA into A549 cells (real-time PCR): single lipid prepared by boiling or reverse evaporation method, RNA 100 nM, FIGS. 76, 91, 96, 99, 104, 106, 107
Method: (§1) 3.1 NCI-N87 cell (gastric cancer cell), MRC-5 cell (lung fibroblast), A549 cell (lung cancer cell) were cultured to logarithmic growth phase, and then plated to a six-well plate at cell density of 1×10^6/2 mL medium/well; MRC-5 cell was cultured in Eagle's MEM medium (MEM, Gibco); A549 cell was cultured in Ham's F-12 medium (HyClone); NCI-N87 cell was cultured in RPMI-1640 medium (HyClone); followed by incubation overnight at 37° C., and the follow-up experiments were performed after the cells were attached to the walls.
(§2) 3.3 After co-incubation with the small RNA for 3 hours, the cells were washed 2-3 times with PBS. The cells were harvested with TRIzol lysis buffer, and the total RNA was extracted. The abundance of small RNA that entered cells was detected by RT-qPCR, and the localization of RNA was detected by fluorescence in situ hybridization; protocols of each detection method were as follows:
(§3) 1) The sRNA was reverse transcribed to cDNA: Reverse Transcription Kit (High-Capacity cDNA Reverse Transcription Kits, Applied Biosystems, cat. No. 4368813) was used to reverse transcribe sRNA into cDNA by stem-loop method, and the reverse transcription system was as follows: RNA template (150 ng/μl) 10 μl, 10×RT buffer, 2.0 μl, 25× dNTP Mix (100 mM) 0.8 μl, U6 RT stem-loop primer 2.0 μl, HJT-sRNA-RT-m7 stem-loop primer 2.0 μl, MultiScribe™ reverse transcriptase 1.0 μl, RNase inhibitor 1.0 μl, nuclease-free H2O 1.2 μl, loaded into a PCR reactor after brief centrifugation, the reaction conditions were as follows: (1) 25° C., 10 min; (2) 37° C., 120 min; (3) 85° C., 5 min; (4) 4° C., termination of the reaction. 20 μl RNase-free ddH2O was added to make up the final volume to 40 μl after the reaction. The stem-loop primer used in the reverse transcription process was synthesized by Beijing Tsingke Biotechnology Co., Ltd.
(§4) 2) Quantitative PCR amplification reaction: the qPCR reaction system has a total volume of 10 μl, containing: 5 μL 2×SYBR Green Master Mix, 0.5 μl forward primer ([…]), 0.5 μl reverse primer (10 μM), 1 μl cDNA by reverse transcription, 3 RNase-free dH2O. LightCycler 480 fluorescence quantitative PCR instrument was used, and the PCR reaction conditions were: 95° C. for 5 min for pre-denaturation, followed by PCR amplification cycle: (1) 95° C., 10 s; (2) 55° C., 10 s; (3) 72° C. , 20 s; a total of 40 cycles; 40° C. for 10 s in the end to cool down. Both the forward and reverse primers of the amplification reaction were designed and synthesized by Beijing Tsingke Biotechnology Co., Ltd.
(§5) 3) The relative expression level was calculated by 2-ΔCt method.
(§6) 100 μl lipid in diethyl ether solution was prepared, and grouped according to the lipid numbers shown in Table 1 (the lipid concentrations are shown in the table below). To the lipid solution was added 20 μl nucleic acid solution (HJT sRNA or siRNA) at the volume ratio of 5:1, and sonicated for after 3 min. The diethyl ether was removed by evaporation at 55° C., and then 100 μl DEPC water was added for hydration to give nucleic acid lipid mixture.
(§7) 100 μL of the nucleic acid solution (HJT sRNA or siRNA) was added to 2-5 μL of the lipid in chloroform (the concentration was shown in Table 1), mixed, and heated at 80-100° C. for 15-30 min to give nucleic acid lipid mixture.
(§8) 3.1.1 MRC-5 cell (pulmonary embryonic fibroblast), A549 cell (human lung adenocarcinoma cell), Caco-2 cell (human colon adenocarcinoma cell) (purchased from the Cell Resource Center of the Institute of Basic Medical Sciences, Chinese Academy of Medical Sciences) were cultured to logarithmic growth phase, then plated into 12-well plates at a cell density of 6×10^5/1 mL medium/well; MRC-5 and Caco-2 cells were cultured in Eagle's MEM medium (MEM, Gibco); A549 cells were cultured in Ham's F-12 medium (HyClone); followed by incubation overnight at 37° C., and the follow-up experiments were performed after the cells were attached to the walls. […]

[3] = system: MRC-5 cell (lung fibroblast); experiment: as above; type: cell-based; details: single lipid; boiling method; FIGS. 78, 92, 103
Method: as §1, §2, §3, §4, §5, §6, §7, §8

[4] = 100 μg lipid : 1 nmol sRNA per mouse, 90° C. 15 min

Row | SMILES | delivery effect into mouse blood and tissues (heart, spleen, kidney or intestine) compared with POPC [1] | delivery of small RNA (PGY-sRNA-26) into intestine [1, 4] | delivery of HJT-sRNA-m7 single-stranded RNA into A549 cells (real-time PCR) ([2]; single lipid, boiling method, FIGS. 78, 92, 103) | delivery of HJT-sRNA-m7 single-stranded RNA into MRC-5 cells (real-time PCR) [3] | delivery of HJT-sRNA-m7 double-stranded RNA into A549 cells (real-time PCR) [2] | delivery of small RNA (PGY-sRNA-26) into heart [1, 4] | delivery of small RNA (PGY-sRNA-26) into spleen [1, 4]
1 | CC/C=C\C/C=C\C/C=C\CCCCCCCC(=O)OC[C@@H](O)COP(=O)([O-])OCC[N+](C)(C)C [No. 37, (2-{[(2R)-2-hydroxy-3-[(9Z,12Z,15Z)-octadeca-9,12,15-trienoyloxy]propylphosphonato]oxy}ethyl) trimethylazanium] | significantly better than or equivalent to that of POPC | delivers small RNA | delivered single-stranded RNA into A549 and MRC-5 cells | delivered single-stranded RNA into A549 and MRC-5 cells |  |  | 
2 | CCCCCC/C=C\CCCCCCCC(=O)OC[C@H](COP(=O)(O)OCCN(C)C)OC(=O)CCCCCCC/C=C\CCCCCCCC [No. 62, 1-palmitoleoyl-2-oleoyl-sn-glycero-3-phospho-ethanolamine-N,N-dimethyl] | significantly better than or equivalent to that of POPC | delivers small RNA |  |  | delivered double-stranded RNA into A549 cells |  | 
3 | CCCCCC/C=C\CCCCCCCC(=O)OC[C@H](COP(=O)(O)OCCN(C)C)OC(=O)CCCCCCC/C=C\CCCCCC [No. 60, 1,2-dipalmitoleoyl-sn-glycero-3-phospho-ethanolamine-N,N-dimethyl] | significantly better than or equivalent to that of POPC | delivers small RNA |  |  | delivered double-stranded RNA into A549 cells |  | 
4 | CC/C=C\C/C=C\C/C=C\C/C=C\C/C=C\CCCC(=O)OCC(COC(=O)CCCCCCC/C=C\C/C=C\CCCCC)OC(=O)CCCCCCC/C=C\C/C=C\CCCCC (centres unmarked) [No. 68, Triglyceride (20:5/18:2/ 18:2)] | significantly better than or equivalent to that of POPC | delivers small RNA |  |  |  | delivers small RNA | delivers small RNA
